Tests used:
ISC-enriched organoids [1] = test: Primary screen, 384-well 2.5-D organoid differentiation (ENR+CD, 6 days): carbachol-induced lysozyme secretion (LYZ.S); format: cell-based, murine; settings: for Dose.FC.LYZ.S: FC vs plate median; for Z.LYZ.S: standard z score; for SSMD.LYZ.S: strictly standardized mean difference
Source text: (§1) High-throughput screening.

ISC-enriched organoids [2] = test: Primary screen, 384-well 2.5-D organoid differentiation (ENR+CD, 6 days): basal lysozyme secretion (LYZ.NS); format: cell-based, murine; settings: for Dose.FC.LYZ.NS: FC vs plate median; for Z.LYZ.NS: standard z score of FC; for SSMD.LYZ.NS: strictly standardized mean difference
Source text: as §1

ISC-enriched organoids [3] = test: Primary screen, 384-well 2.5-D organoid differentiation (ENR+CD, 6 days, Target Selective Inhibitor Library, vs whole-plate median): ATP (CellTiter-Glo 3D, CTG); settings: for Dose.FC.CTG: FC vs plate median; for Z.CTG: standard z score of FC; for SSMD.CTG: strictly standardized mean difference
[4] = primary screen, 1st of the 4 dose lines of the treatment (dose not given)
[5] = primary screen, 2nd of the 4 dose lines of the treatment (dose not given)
[6] = primary screen, 3rd of the 4 dose lines of the treatment (dose not given)
[7] = primary screen, 4th of the 4 dose lines of the treatment (dose not given)
[8] = primary screen, dose 0.08 uM, ENR+CD 6 days
[9] = primary screen, dose 0.40 uM, ENR+CD 6 days
[10] = primary screen, dose 2.00 uM, ENR+CD 6 days
[11] = primary screen, dose 10.00 uM, ENR+CD 6 days

Structure (SMILES)	Z.LYZ.NS (ISC-enriched organoids [2]; Dose 0.08 uM)	Z.LYZ.NS (ISC-enriched organoids [2]; Dose 0.40 uM)	Z.LYZ.NS (ISC-enriched organoids [2]; Dose 2.00 uM)	Z.LYZ.NS (ISC-enriched organoids [2]; Dose 10.00 uM)	Z.CTG (ISC-enriched organoids [3]; Dose 0.08 uM)	Z.CTG (ISC-enriched organoids [3]; Dose 0.40 uM)	Z.CTG (ISC-enriched organoids [3]; Dose 2.00 uM)	Z.CTG (ISC-enriched organoids [3]; Dose 10.00 uM)	Dose.FC.LYZ.S (ISC-enriched organoids [1]; Dose 0.08 uM, primary screen) [log 2 fold change]	Dose.FC.LYZ.S (ISC-enriched organoids [1]; Dose 0.40 uM, primary screen) [log 2 fold change]	Dose.FC.LYZ.S (ISC-enriched organoids [1]; Dose 2.00 uM, primary screen) [log 2 fold change]	Dose.FC.LYZ.S (ISC-enriched organoids [1]; Dose 10.00 uM, primary screen) [log 2 fold change]	Dose.FC.LYZ.NS (ISC-enriched organoids [2]; Dose 0.08 uM, primary screen) [log 2 fold change]	Dose.FC.LYZ.NS (ISC-enriched organoids [2]; Dose 0.40 uM, primary screen) [log 2 fold change]	Dose.FC.LYZ.NS (ISC-enriched organoids [2]; Dose 2.00 uM, primary screen) [log 2 fold change]	Dose.FC.LYZ.NS (ISC-enriched organoids [2]; Dose 10.00 uM, primary screen) [log 2 fold change]	Dose.FC.CTG (ISC-enriched organoids [3]; Dose 0.08 uM, primary screen) [log 2 fold change]	Dose.FC.CTG (ISC-enriched organoids [3]; Dose 0.40 uM, primary screen) [log 2 fold change]	Dose.FC.CTG (ISC-enriched organoids [3]; Dose 2.00 uM, primary screen) [log 2 fold change]	Dose.FC.CTG (ISC-enriched organoids [3]; Dose 10.00 uM, primary screen) [log 2 fold change]	also measured
Cc1ccc2c(=O)c3cccc(CC(=O)O)c3oc2c1C [DMXAA (Vadimezan)]	−0.065	−0.317	−0.334	−0.271	−1.357	−1.502	−1.139	−0.550													Dose.FC.LYZ.S (ISC-enriched organoids [1]; Dose 0.08 uM, ENR+CD, 6 days): −0.091 log 2 fold change; Dose.FC.LYZ.S (ISC-enriched organoids [1]; Dose 0.40 uM, ENR+CD, 6 days): −0.009 log 2 fold change; Dose.FC.LYZ.S (ISC-enriched organoids [1]; Dose 2.00 uM, ENR+CD, 6 days): −0.094 log 2 fold change; Dose.FC.LYZ.S (ISC-enriched organoids [1]; Dose 10.00 uM, ENR+CD, 6 days): −0.118 log 2 fold change; Dose.FC.LYZ.NS (ISC-enriched organoids [2]; Dose 0.08 uM, ENR+CD, 6 days): −0.007 log 2 fold change; Dose.FC.LYZ.NS (ISC-enriched organoids [2]; Dose 0.40 uM, ENR+CD, 6 days): −0.036 log 2 fold change; Dose.FC.LYZ.NS (ISC-enriched organoids [2]; Dose 2.00 uM, ENR+CD, 6 days): −0.038 log 2 fold change; Dose.FC.LYZ.NS (ISC-enriched organoids [2]; Dose 10.00 uM, ENR+CD, 6 days): −0.031 log 2 fold change; Dose.FC.CTG (ISC-enriched organoids [3]; Dose 0.08 uM, ENR+CD, 6 days): −0.568 log 2 fold change; Dose.FC.CTG (ISC-enriched organoids [3]; Dose 0.40 uM, ENR+CD, 6 days): −0.629 log 2 fold change; Dose.FC.CTG (ISC-enriched organoids [3]; Dose 2.00 uM, ENR+CD, 6 days): −0.477 log 2 fold change; Dose.FC.CTG (ISC-enriched organoids [3]; Dose 10.00 uM, ENR+CD, 6 days): −0.230 log 2 fold change
OCCn1cc(-c2cnc3nnn(Cc4ccc5ncccc5c4)c3n2)cn1 [PF-04217903]	0.742	1.404	1.060	0.617	0.326	0.616	−0.122	0.276	0.110	0.265	0.049	0.127	0.085	0.161	0.122	0.071	0.136	0.258	−0.051	0.116	
CC(C)C[C@H](NC(=O)CNC(=O)c1cc(Cl)ccc1Cl)B(O)O [MLN2238]					−3.952	−2.637	−2.944	−4.205													Z.LYZ.S (ISC-enriched organoids [1]; [4]): −2.478; Z.LYZ.S (ISC-enriched organoids [1]; [5]): −2.317; Z.LYZ.S (ISC-enriched organoids [1]; [6]): −2.280; Z.LYZ.S (ISC-enriched organoids [1]; [7]): −2.394; SSMD.LYZ.S (ISC-enriched organoids [1]; [4]): −1.588; SSMD.LYZ.S (ISC-enriched organoids [1]; [5]): −1.620; SSMD.LYZ.S (ISC-enriched organoids [1]; [6]): −1.733; SSMD.LYZ.S (ISC-enriched organoids [1]; [7]): −1.739; SSMD.LYZ.NS (ISC-enriched organoids [2]; [4]): −1.766; SSMD.LYZ.NS (ISC-enriched organoids [2]; [5]): −1.837; SSMD.LYZ.NS (ISC-enriched organoids [2]; [6]): −1.787; SSMD.LYZ.NS (ISC-enriched organoids [2]; [7]): −2.223; SSMD.CTG (ISC-enriched organoids [3]; [4]): −2.218; SSMD.CTG (ISC-enriched organoids [3]; [5]): −0.972; SSMD.CTG (ISC-enriched organoids [3]; [6]): −1.669; SSMD.CTG (ISC-enriched organoids [3]; [7]): −1.891
CS(=O)(=O)c1cccc(CNc2nc(Nc3ccc4c(c3)CCC(=O)N4)ncc2C(F)(F)F)c1 [PF-573228]	0.089	−0.401	−0.502	−2.180	0.183	−0.129	−1.037	−1.188	0.114	0.002	−0.174	−0.305	0.010	−0.046	−0.058	−0.250	0.077	−0.054	−0.434	−0.497	
COC1CCN(C(=O)c2cc(Cc3n[nH]c(=O)c4ccccc34)ccc2F)CC1 [AZD2461]																					Dose.FC.LYZ.S (ISC-enriched organoids [1]; [8]): 0.097 log 2 fold change; Dose.FC.LYZ.S (ISC-enriched organoids [1]; [9]): 0.015 log 2 fold change; Dose.FC.LYZ.S (ISC-enriched organoids [1]; [10]): −0.100 log 2 fold change; Dose.FC.LYZ.S (ISC-enriched organoids [1]; [11]): −0.224 log 2 fold change; Dose.FC.LYZ.NS (ISC-enriched organoids [2]; [8]): 0.038 log 2 fold change; Z.LYZ.NS (ISC-enriched organoids [2]; primary screen, dose 0.08 uM): 0.334; Dose.FC.LYZ.NS (ISC-enriched organoids [2]; [9]): −0.038 log 2 fold change; Z.LYZ.NS (ISC-enriched organoids [2]; primary screen, dose 0.40 uM): −0.327; Dose.FC.LYZ.NS (ISC-enriched organoids [2]; [10]): −0.074 log 2 fold change; Z.LYZ.NS (ISC-enriched organoids [2]; primary screen, dose 2.00 uM): −0.641; Dose.FC.LYZ.NS (ISC-enriched organoids [2]; [11]): −0.172 log 2 fold change; Z.LYZ.NS (ISC-enriched organoids [2]; primary screen, dose 10.00 uM): −1.497; Dose.FC.CTG (ISC-enriched organoids [3]; [8]): 0.073 log 2 fold change; Z.CTG (ISC-enriched organoids [3]; primary screen, dose 0.08 uM): 0.174; Dose.FC.CTG (ISC-enriched organoids [3]; [9]): −0.040 log 2 fold change; Z.CTG (ISC-enriched organoids [3]; primary screen, dose 0.40 uM): −0.095; Dose.FC.CTG (ISC-enriched organoids [3]; [10]): −0.232 log 2 fold change; Z.CTG (ISC-enriched organoids [3]; primary screen, dose 2.00 uM): −0.555; Dose.FC.CTG (ISC-enriched organoids [3]; [11]): −0.336 log 2 fold change; Z.CTG (ISC-enriched organoids [3]; primary screen, dose 10.00 uM): −0.803

— patent US20230398130A1, “METHODS AND COMPOSITIONS FOR DIFFERENTIATING STEM CELLS” (Massachusetts Institute of Technology, priority 2020, published 2023)
